# Test results as given in patent US11377444B2, “Pyridopyrimidine compounds acting as mTORC 1/2 dual inhibitors” (MEDSHINE DISCOVERY INC., priority 2017, dated 2022).
# Target: T1, mTOR kinase (mTORC1 and mTORC2 kinase complex) (Homo sapiens, UniProt P42345)
# T1 construct: purchased DiscoverX; host or cells: HEK-293
# Test: In vitro evaluation of mTOR kinase inhibitory activity (DiscoverX ligand-bead competition binding, qPCR readout)
# Description: Experimental Embodiment 1: In Vitro Evaluation of mTOR Kinase Inhibitory Activity This experiment was performed by DiscoverX. All materials and methods were obtained from DiscoverX.
# Kinase activity analysis.
# 1. Labeled mTOR kinase was stably expressed in HEK-293 cells.
# 2. Streptavidin magnetic beads were treated with biotinylated small molecule ligands at room temperature for 30 minutes to produce affinity resin for kinase analysis;
# 3. Ligand beads were blocked with excess biotin and washed with buffer (1% bovine serum albumin, […]) to remove unbound ligand and non-specifically bound ligand;
# 4. The assembly of kinase and ligand and affinity beads, and the binding reaction between the compound and the three were performed in buffer (20% blocking buffer, 0.17x phosphate buffer, 0.05% Tween […]);
# 5. The test compounds were dissolved in dimethyl sulfoxide;
# 6. All test compounds were dissolved in DMSO, and then directly diluted […]
# 7. The solution was placed in a 384-well polypropylene plate, wherein the volume of each well was 0.02 mL;
# 8. The plate was shaked for an hour at room temperature;
# 9. The plate was washed with buffer (1× PBS, 0.05% Tween 20);
# 10. The affinity beads were resuspended in buffer (1× PBS, 0.05% Tween […] non-biotin affinity ligand) and incubated at room temperature for 30 minutes;
# 11. The kinase concentration in the eluate was deteced by qPCR.
row,Kd [nM],SMILES
1,0.5,"CNC(=O)c1cccc(-c2ccc3c(N4CCOCC4C)nc(N4CCOC5(CCSC5)C4)nc3n2)c1 (single isomer, unassigned) [Embodiment 45-1]"
2,1.7,"CNC(=O)c1cccc(-c2ccc3c(N4CCOCC4C)nc(N4CCOC5(CCSC5)C4)nc3n2)c1 (single isomer, unassigned) [Embodiment 45-2]"
3,1,"CNC(=O)c1cccc(-c2ccc3c(N4CCOCC4C)nc(N4CCOC5(CC[S+]([O-])C5)C4)nc3n2)c1 (single isomer, unassigned) [Embodiment 46-1]"
4,4.9,"CNC(=O)c1cccc(-c2ccc3c(N4CCOCC4C)nc(N4CCOC5(CC[S+]([O-])C5)C4)nc3n2)c1 (single isomer, unassigned) [Embodiment 46-2]"
5,7.9,"CNC(=O)c1cccc(-c2ccc3c(N4CCOCC4C)nc(N4CCOC5(CCS(=O)(=O)C5)C4)nc3n2)c1 (single isomer, unassigned) [Embodiment 47-1]"
6,7.9,"CNC(=O)c1cccc(-c2ccc3c(N4CCOCC4C)nc(N4CCOC5(CCS(=O)(=O)C5)C4)nc3n2)c1 (single isomer, unassigned) [Embodiment 47-2]"
7,1.8,"CNC(=O)c1cccc(-c2ccc3c(N4CCOCC4C)nc(N4CC5(CCOC5)OCC4C)nc3n2)c1 (single isomer, unassigned) [Embodiment 48-1]"
8,1.9,"CC1COCCN1c1nc(N2CCOC3(CCOC3)C2)nc2nc(-c3cccc(C(N)=O)c3)ccc12 (single isomer, unassigned) [Embodiment 50-1]"
9,1.1,"CNC(=O)c1cccc(-c2ccc3c(N4CCOCC4C)nc(N4CCOC5(CNC(=O)C5)C4)nc3n2)c1 (single isomer, unassigned) [Embodiment 53-1]"
10,1.8,"CNC(=O)c1cccc(-c2ccc3c(N4CCOCC4C)nc(N4CCOC5(CNC(=O)C5)C4)nc3n2)c1 (single isomer, unassigned) [Embodiment 53-2]"

# The next lines start with the compound.
row,SMILES,Kd [nM]
1,"CNC(=O)c1cccc(-c2ccc3c(N4CCOCC4C)nc(N4CCOC5CC54)nc3n2)c1 (single isomer, unassigned) [Embodiment 18-1]",3
2,"CNC(=O)c1cccc(-c2ccc3c(N4CCOCC4C)nc(N4CCOC5CC54)nc3n2)c1 (single isomer, unassigned) [Embodiment 18-2]",0.5
3,CNC(=S)c1cccc(-c2ccc3c(N4CCOC[C@@H]4C)nc(N4CCOC5(CC5)C4)nc3n2)c1 [Embodiment 2],0.15
4,CONC(=O)c1cccc(-c2ccc3c(N4CCOC[C@@H]4C)nc(N4CCOC5(CC5)C4)nc3n2)c1 [Embodiment 3],0.32
5,C[C@H]1COCCN1c1nc(N2CCOC3(CC3)C2)nc2nc(-c3cccc(C(=O)NO)c3)ccc12 [Embodiment 4],0.22
6,CNC(=O)c1cccc(-c2ccc3c(N4CCOC[C@@H]4C)nc(C4CCC5(CC4)OCCO5)nc3n2)c1 [Embodiment 5],0.66
7,CNC(=O)c1cccc(-c2ccc3c(N4CCOC[C@@H]4C)nc(N4CC5(CCOCC5)C4)nc3n2)c1 [Embodiment 6],12
8,CNC(=O)c1cccc(-c2ccc3c(N4CCOC[C@@H]4C)nc(N4CCC5(CC4)COC5)nc3n2)c1 [Embodiment 7],6.4
9,CNC(=O)c1cccc(-c2ccc3c(N4CCOCC4C)nc(N4CCC5(CCOC5)CC4)nc3n2)c1 (stereo not shown) [Embodiment 8],5.9
10,CNC(=O)c1cccc(-c2ccc3c(N4CCOCC4C)nc(N4CCC5(CC4)CC5)nc3n2)c1 (stereo not shown) [Embodiment 10],7.8
11,Nc1nc2cc(-c3ccc4c(N5C6CCC5COC6)nc(N5CCOC6(CC6)C5)nc4n3)ccc2o1 [Embodiment 11],1.2
12,C[C@H]1COCCN1c1nc(N2CCOC3(CC3)C2)nc2nc(-c3ccc4ccc(N)nc4c3)ccc12 [Embodiment 14],0.25
13,CNC(=O)c1cccc(-c2ccc3c(N4CCOC[C@@H]4C)nc(N4CCOC5(CNC5)C4)nc3n2)c1 [Embodiment 15],3.3
14,C[C@H]1COCCN1c1nc(N2CCOC3(CC3)C2)nc2nc(-c3ccc4nc(N)ncc4c3)ccc12 [Embodiment 16],1.5
15,C[C@H]1COCCN1c1nc(N2CCOC3(CC3)C2)nc2nc(-c3cccc(-c4ccn[nH]4)c3)ccc12 [Embodiment 17],3.4
16,C[C@H]1COCCN1c1nc(N2CCOC3(CC3)C2)nc2nc(-c3cccc(-c4nc[nH]n4)c3)ccc12 [Embodiment 19],3
17,CNC(=O)c1cccc(-c2ccc3c(N4CCOC[C@@H]4C)nc(N4CCOCC45CC5)nc3n2)c1 [Embodiment 20],0.97
18,C[C@H]1COCCN1c1nc(N2CCOC3(CC3)C2)nc2nc(-c3cccc(C(=O)NC(C)(C)C)c3)ccc12 [Embodiment 22],1.5
19,C[C@H]1COCCN1c1nc(N2CCOC3(CC3)C2)nc2nc(-c3ccc4cnc(N)nc4c3)ccc12 [Embodiment 25],1.4
20,CNC(=O)c1cccc(-c2ccc3c(N4CCOC[C@@H]4C)nc(N4CCOC5(CN(C)C5)C4)nc3n2)c1 [Embodiment 27],6.6
21,CNC(=O)c1cccc(-c2ccc3c(N4CCOC[C@@H]4C)nc(N4CCOC5(C4)CC(F)(F)C5)nc3n2)c1 [Embodiment 28],1.4
22,C[C@H]1COCCN1c1nc(N2CCOC3(C2)CC(F)(F)C3)nc2nc(-c3cccc(C(=O)NC4CC4)c3)ccc12 [Embodiment 29],2.7
23,CNC(=O)c1cccc(-c2ccc3c(N4CCOC[C@@H]4C)nc(N4CCCC5(C4)OCCO5)nc3n2)c1 [Embodiment 31],5
24,CNC(=O)c1cccc(-c2ccc3c(N4CCOC[C@@H]4C)nc(N4CCOC5(COC5)C4)nc3n2)c1 [Embodiment 40],0.78
25,CNC(=O)c1cccc(-c2ccc3c(N4CCOC[C@@H]4C)nc(N4CCOC5(CSC5)C4)nc3n2)c1 [Embodiment 41],0.94
26,CNC(=O)c1cccc(-c2ccc3c(N4CCOC[C@@H]4C)nc(N4CCOC5(C4)C[S+]([O-])C5)nc3n2)c1 (stereo partly shown) [Embodiment 42],0.93
27,CNC(=O)c1cccc(-c2ccc3c(N4CCOC[C@@H]4C)nc(N4CCOC5(C4)CS(=O)(=O)C5)nc3n2)c1 [Embodiment 43],12
